Results as given in the NIST ThermoML archive (doi:10.1021/je060271a).

Settings: 283.15 K, Liquid, Vibrating tube method

CCCCCCCC(=O)OCC(COC(=O)CCCCCCC)(COC(=O)CCCCCCC)COC(=O)CCCCCCC [pentaerythritol tetraoctanoate]
Settings	mass density [kg/m3]
16618 kPa	979.5
16646 kPa	979.5
16674 kPa	979.5
16703 kPa	979.6
16736 kPa	979.5
16765 kPa	979.6
16794 kPa	979.5
16827 kPa	979.7
16856 kPa	979.7
16890 kPa	979.7
16919 kPa	979.7
16949 kPa	979.6
16980 kPa	979.7
17009 kPa	979.6
17039 kPa	979.7
17073 kPa	979.7
17102 kPa	979.7
17138 kPa	979.7
17168 kPa	979.9
17198 kPa	979.9
17227 kPa	979.7
17264 kPa	979.9
17293 kPa	979.9
17323 kPa	979.8
17360 kPa	979.9
17390 kPa	979.9
17427 kPa	979.9
17458 kPa	980
17488 kPa	980
17519 kPa	979.9
17556 kPa	980
17588 kPa	980
17619 kPa	980
17657 kPa	980
17688 kPa	980.1
17726 kPa	980.1
17758 kPa	980.1
17790 kPa	980.1
17823 kPa	980.2
17862 kPa	980.2
17894 kPa	980.2
17926 kPa	980.1
17966 kPa	980.2
17998 kPa	980.1
18037 kPa	980.2
18070 kPa	980.2
18103 kPa	980.3
18137 kPa	980.4
18177 kPa	980.3
18210 kPa	980.4
18244 kPa	980.4
18285 kPa	980.3
18319 kPa	980.3
18360 kPa	980.5
18394 kPa	980.4
18429 kPa	980.3
18470 kPa	980.4
18504 kPa	980.5
18539 kPa	980.6
18581 kPa	980.6
18616 kPa	980.6
18652 kPa	980.5
18694 kPa	980.6
18731 kPa	980.6
18766 kPa	980.8
18802 kPa	980.7
18846 kPa	980.7
18882 kPa	980.7
18919 kPa	980.7
18963 kPa	980.7
18999 kPa	980.8
19044 kPa	980.7
19081 kPa	980.7
19118 kPa	980.8
19155 kPa	980.8
19200 kPa	980.9
19238 kPa	980.9
19276 kPa	980.8
19320 kPa	980.9
19357 kPa	980.9
19394 kPa	980.9
19437 kPa	981
19472 kPa	980.9
19537 kPa	981
19587 kPa	981
19666 kPa	981.2
19710 kPa	981.2
19746 kPa	981.2
19773 kPa	981.1
19802 kPa	981.2
19829 kPa	981.2
19855 kPa	981.2
19888 kPa	981.2
19915 kPa	981.2
19942 kPa	981.4
19976 kPa	981.2
20003 kPa	981.3
20036 kPa	981.3
20064 kPa	981.4
20092 kPa	981.3
20120 kPa	981.4
20156 kPa	981.4
20180 kPa	981.4
20215 kPa	981.4
20244 kPa	981.3
20280 kPa	981.5
20310 kPa	981.5
20341 kPa	981.5
20376 kPa	981.5
20397 kPa	981.5
20414 kPa	981.5
20435 kPa	981.5
20452 kPa	981.6
20469 kPa	981.5
20490 kPa	981.5
20508 kPa	981.6
20525 kPa	981.6
20543 kPa	981.7
20563 kPa	981.5
20581 kPa	981.4
20598 kPa	981.6
20619 kPa	981.6
20637 kPa	981.5
20658 kPa	981.6
20676 kPa	981.7
20694 kPa	981.6
20715 kPa	981.7
20733 kPa	981.6
20751 kPa	981.7
20769 kPa	981.6
20790 kPa	981.8
20808 kPa	981.7
20830 kPa	981.8
20848 kPa	981.6
20866 kPa	981.7
20884 kPa	981.7
20905 kPa	981.7
20923 kPa	981.9
20942 kPa	981.7
20964 kPa	981.8
20982 kPa	981.9
21004 kPa	981.8
21022 kPa	981.9
21040 kPa	981.9
21059 kPa	981.9
21081 kPa	981.8
21099 kPa	981.9
21118 kPa	982
21140 kPa	981.8
21159 kPa	982
21181 kPa	982
21200 kPa	981.9
21219 kPa	981.9
21238 kPa	982
21258 kPa	981.8
21280 kPa	981.9
21299 kPa	982
21318 kPa	982
21341 kPa	982.1
21360 kPa	982
21379 kPa	982.1
21402 kPa	982.1
21421 kPa	982.1
21440 kPa	982
21460 kPa	982
21483 kPa	982
21502 kPa	982.1
21525 kPa	982.1
21545 kPa	982.1
21564 kPa	982.1
21584 kPa	982.1
21607 kPa	982.2
21626 kPa	982
21647 kPa	982.2
21670 kPa	982.1
21690 kPa	982.2
21710 kPa	982.1
21730 kPa	982
21755 kPa	982.2
21775 kPa	982.2
21795 kPa	982.3
21815 kPa	982.3
21839 kPa	982.3
21859 kPa	982.2
21879 kPa	982.2
21898 kPa	982.2
21922 kPa	982.3
21943 kPa	982.2
21963 kPa	982.3
21987 kPa	982.4
22008 kPa	982.4
22033 kPa	982.3
22054 kPa	982.4
22074 kPa	982.4
22094 kPa	982.3
22115 kPa	982.4
22140 kPa	982.4
22160 kPa	982.5
22185 kPa	982.5
22205 kPa	982.4
22226 kPa	982.4
22251 kPa	982.5
22271 kPa	982.4
22292 kPa	982.4
22318 kPa	982.5
22339 kPa	982.5
22360 kPa	982.5
22382 kPa	982.4
22407 kPa	982.7
22428 kPa	982.6
22453 kPa	982.7
22474 kPa	982.6
22496 kPa	982.5
22517 kPa	982.5
22543 kPa	982.6
22564 kPa	982.6
22586 kPa	982.4
22612 kPa	982.6
22634 kPa	982.6
22655 kPa	982.6
22681 kPa	982.8
22703 kPa	982.7
22725 kPa	982.7
22822 kPa	982.8
22844 kPa	982.8
22866 kPa	982.8
22889 kPa	982.8
22916 kPa	982.7
22938 kPa	982.9
22961 kPa	982.8
22987 kPa	982.8
23010 kPa	982.8
23032 kPa	982.9
23059 kPa	982.8
23082 kPa	982.9
23104 kPa	982.8
23132 kPa	983
23154 kPa	982.9
23177 kPa	982.9
23204 kPa	982.9
23227 kPa	982.9
23250 kPa	983
23278 kPa	983
23301 kPa	982.9
23324 kPa	983
23348 kPa	982.9
23375 kPa	983.1
23398 kPa	983.1
23422 kPa	983.1
23450 kPa	983
23473 kPa	983
23497 kPa	983.1
23525 kPa	983.2
23549 kPa	983.1
23573 kPa	983.2
23597 kPa	983.1
23625 kPa	983.2
23649 kPa	983.1
23672 kPa	983.2
23701 kPa	983.3
23725 kPa	983.2
23753 kPa	983.2
23777 kPa	983.1
23801 kPa	983.2
23831 kPa	983.2
23857 kPa	983.3
23881 kPa	983.3
23905 kPa	983.4
23934 kPa	983.2
23959 kPa	983.3
23983 kPa	983.4
24008 kPa	983.3
24038 kPa	983.2
24062 kPa	983.4
24087 kPa	983.3
24117 kPa	983.4
24142 kPa	983.3
24168 kPa	983.5
24194 kPa	983.5
24219 kPa	983.5
24248 kPa	983.5
24273 kPa	983.5
24304 kPa	983.4
24329 kPa	983.6
24354 kPa	983.5
24385 kPa	983.5
24410 kPa	983.5
24436 kPa	983.5
24466 kPa	983.6
24492 kPa	983.7
24518 kPa	983.6
24544 kPa	983.7
24576 kPa	983.6
24601 kPa	983.7
24632 kPa	983.6
